Assay results published in patent US11578061B2, “Inhibitors of LRRK2 kinase” (Halia Therapeutics, Inc., priority 2021, dated 2023).

target: recombinant human LRRK2 (catalytic domain only [amino acids 970-2527], GST-tagged) (Homo sapiens (Human), UniProt Q5S007); test: LRRK2 Enzymatic Assay; type: biochemical; conditions: LRRKtide substrate, [32P]-ATP
Method in brief: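 GST-tagged catalytic domain (aa 970-2527) at 30 nM with 20 μM LRRKtide in HEPES pH 7.5/MgCl2 buffer, 1% DMSO; compounds (10 μM to 0.5 nM) preincubated 20 min, then [32P]-ATP added for 2 h at room temperature. P81 phosphocellulose capture; activity as % of vehicle, IC50 by curve fit.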

Sequence of recombinant human LRRK2 (catalytic domain only [amino acids 970-2527], GST-tagged) (Q5S007 970-2527): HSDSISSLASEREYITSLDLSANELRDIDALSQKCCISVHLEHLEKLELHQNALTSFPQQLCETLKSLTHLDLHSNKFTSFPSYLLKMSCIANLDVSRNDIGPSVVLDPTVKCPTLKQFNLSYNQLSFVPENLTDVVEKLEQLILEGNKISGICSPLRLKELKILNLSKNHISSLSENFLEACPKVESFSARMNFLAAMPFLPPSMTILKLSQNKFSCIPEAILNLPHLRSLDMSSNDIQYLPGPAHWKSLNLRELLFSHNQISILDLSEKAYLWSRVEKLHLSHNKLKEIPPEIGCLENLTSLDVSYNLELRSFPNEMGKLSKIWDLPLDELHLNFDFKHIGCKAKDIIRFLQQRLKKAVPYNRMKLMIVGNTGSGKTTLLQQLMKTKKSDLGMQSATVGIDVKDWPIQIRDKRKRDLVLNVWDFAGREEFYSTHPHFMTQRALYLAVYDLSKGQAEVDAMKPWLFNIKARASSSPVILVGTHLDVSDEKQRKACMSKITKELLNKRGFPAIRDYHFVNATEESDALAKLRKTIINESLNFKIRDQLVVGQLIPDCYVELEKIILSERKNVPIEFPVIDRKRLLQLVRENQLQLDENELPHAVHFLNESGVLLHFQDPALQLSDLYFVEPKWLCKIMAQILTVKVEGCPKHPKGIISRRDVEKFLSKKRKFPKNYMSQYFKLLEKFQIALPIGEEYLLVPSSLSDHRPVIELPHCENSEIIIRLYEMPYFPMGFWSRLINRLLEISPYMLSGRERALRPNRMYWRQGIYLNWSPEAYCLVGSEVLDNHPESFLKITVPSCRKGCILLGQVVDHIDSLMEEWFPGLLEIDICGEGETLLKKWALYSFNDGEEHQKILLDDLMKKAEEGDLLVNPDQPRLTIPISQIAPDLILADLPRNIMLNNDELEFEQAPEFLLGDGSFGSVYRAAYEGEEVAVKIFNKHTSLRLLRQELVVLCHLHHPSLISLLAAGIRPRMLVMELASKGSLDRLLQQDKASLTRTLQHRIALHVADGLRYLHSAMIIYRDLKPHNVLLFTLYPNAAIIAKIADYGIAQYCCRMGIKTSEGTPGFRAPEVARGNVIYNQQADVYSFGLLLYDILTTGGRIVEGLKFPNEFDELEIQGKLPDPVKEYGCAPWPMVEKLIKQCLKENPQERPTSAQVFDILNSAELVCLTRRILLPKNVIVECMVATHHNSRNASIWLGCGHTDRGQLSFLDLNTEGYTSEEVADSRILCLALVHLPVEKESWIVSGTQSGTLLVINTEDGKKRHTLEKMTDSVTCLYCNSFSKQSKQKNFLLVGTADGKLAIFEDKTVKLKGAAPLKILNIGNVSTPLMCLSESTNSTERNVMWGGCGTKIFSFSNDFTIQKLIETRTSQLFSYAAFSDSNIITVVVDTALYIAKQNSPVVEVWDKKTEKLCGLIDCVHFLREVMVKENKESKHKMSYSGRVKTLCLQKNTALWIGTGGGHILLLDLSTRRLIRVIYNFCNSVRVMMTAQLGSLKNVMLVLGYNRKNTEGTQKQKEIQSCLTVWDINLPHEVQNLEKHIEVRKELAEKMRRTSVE

SMILES	IC50 [nM]
CC(=O)N[C@H]1CC[C@H](COc2nc(Nc3cnn(C(C)(C)C#N)c3)ncc2F)CC1 [Example 186, N-((1R,4R)-4-(((2-((1-(2-cyanopropan-2-yl)-1H-pyrazol-4-yl)amino)-5-fluoropyrimidin-4-yl)oxy)methyl)cyclo-hexyl)acetamide]	< 50
CC(=O)N[C@H]1CC[C@H](COc2nc(Nc3cnn(CC(F)(F)F)c3)ncc2F)CC1 [Example 188, N-((1R,4R)-4-(((5-fluoro-2-((1-(2,2,2-trifluoroethyl)-1H-pyrazol-4-yl)amino)pyrimidin-4-yl)oxy)methyl)cyclo-hexyl)acetamide]	< 50
CC(=O)N[C@H]1CC[C@H](COc2nc(Nc3cnn(CCF)c3)ncc2F)CC1 [Example 189, N-((1R,4R)-4-(((5-fluoro-2-((1-(2-fluoroethyl)-1H-pyrazol-4-yl)amino)pyrimidin-4-yl)oxy)methyl)cyclo-hexyl)acetamide]	< 50
COCCn1cc(Nc2ncc(F)c(OC[C@H]3CC[C@H](NC(C)=O)CC3)n2)cn1 [Example 191, N-((1R,4R)-4-(((5-fluoro-2-((1-(2-methoxyethyl)-1H-pyrazol-4-yl)amino)pyrimidin-4-yl)oxy)methyl)cyclo-hexyl)acetamide]	< 50
CC(=O)N[C@H]1CC[C@H](COc2nc(Nc3cn(C)nc3C)ncc2F)CC1 [Example 194, N-((1R,4R)-4-(((2-((1,3-dimethyl-1H-pyrazol-4-yl)amino)-5-fluoropyrimidin-4-yl)oxy)methyl)cyclo-hexyl)acetamide]	50 to 200
CC(=O)N[C@H]1CC[C@H](COc2nc(Nc3cn(C(C)C)nc3C)ncc2F)CC1 [Example 195, N-((1R,4R)-4-(((5-fluoro-2-((1-isopropyl-3-methyl-1H-pyrazol-4-yl)amino)pyrimidin-4-yl)oxy)methyl)cyclo-hexyl)acetamide]	< 50

Now from value to compound:

IC50 [nM]	SMILES
50 to 200	CC(=O)N[C@H]1CC[C@H](COc2nc(Nc3cnn(C)c3)ncc2F)CC1 [Example 183, N-((1R,4R)-4-(((5-fluoro-2-((1-methyl-1H-pyrazol-4-yl)amino)pyrimidin-4-yl)oxy)methyl)cyclo-hexyl)acetamide]
< 50	CCn1cc(Nc2ncc(F)c(OC[C@H]3CC[C@H](NC(C)=O)CC3)n2)cn1 [Example 184, N-((1R,4R)-4-(((2-((1-ethyl-1H-pyrazol-4-yl)amino)-5-fluoropyrimidin-4-yl)oxy)methyl)cyclo-hexyl)acetamide]
< 50	CC(=O)N[C@H]1CC[C@H](COc2nc(Nc3cnn(C(C)C)c3)ncc2F)CC1 [Example 185, N-((1R,4R)-4-(((5-fluoro-2-((1-isopropyl-1H-pyrazol-4-yl)amino)pyrimidin-4-yl)oxy)methyl)cyclo-hexyl)acetamide]
200 to 400	CC(=O)N[C@H]1CC[C@H](COc2nc(Nc3cnn(C(F)(F)F)c3)ncc2F)CC1 [Example 187, N-((1R,4R)-4-(((5-fluoro-2-((1-(trifluoromethyl)-1H-pyrazol-4-yl)amino)pyrimidin-4-yl)oxy)methyl)cyclo-hexyl)acetamide]
50 to 200	CC(=O)N[C@H]1CC[C@H](COc2nc(Nc3cnn(C4COC4)c3)ncc2F)CC1 [Example 192, N-((1R,4R)-4-(((5-fluoro-2-((1-(oxetan-3-yl)-1H-pyrazol-4-yl)amino)pyrimidin-4-yl)oxy)methyl)cyclo-hexyl)acetamide]
< 50	CC(=O)N[C@H]1CC[C@H](COc2nc(Nc3cnn(C4CCOCC4)c3)ncc2F)CC1 [Example 193, N-((1R,4R)-4-(((5-fluoro-2-((1-(tetrahydro-2H-pyran-4-yl)-1H-pyrazol-4-yl)amino)pyrimidin-4-yl)oxy)methyl)cyclo-hexyl)acetamide]
< 50	CC(=O)N[C@H]1CC[C@H](COc2nc(Nc3cn(C4CC4)nc3C)ncc2F)CC1 [Example 196, N-((1R,4R)-4-(((2-((1-cyclopropyl-3-methyl-1H-pyrazol-4-yl)amino)-5-fluoropyrimidin-4-yl)oxy)methyl)cyclo-hexyl)acetamide]
